Data: publication PMC10600239, “Selective MCL-1 inhibitor ABBV-467 is efficacious in tumor models but is associated with cardiac troponin increases in patients” (Communications Medicine, 2023)
“And” between values parts separate entries of the source, which are not always exact repeats. Equal values may be shown once.

Tested on: AMO-1 xenografts
Experiment: AMO-1 xenograft efficacy (tumor volume, body weight); on Mortality Observation Day 34: key: EUTV: Euthanized: tumor volume
Format: in vivo, mouse
Design: key to Anti-tumor Activity vs. AMO-1 (DSMZ), Median / Anti-tumor Activity vs. AMO-1 (DSMZ), individual animal / Anti-tumor Activity vs. AMO-1 (DSMZ), Mean: tumor volume in mm^3 (length × width^2/2)
Method: All animal studies were conducted in accordance with the guidelines approved by the Institutional Animal Care and Use Committees of AbbVie. The research protocol was approved by In Vivo Pharmacology at AbbVie prior to study initiation but was not publicly registered or disclosed. Female C.B-17 SCID-beige mice (AMO-1, OPM-2, NCI-H929, and OCI-AML2 xenografts) and female NSG mice (MV4-11-Red.Fluc systemic) were purchased from Charles River Laboratories (Wilmington, MA). Animals were housed in a light cycle-controlled room with HEPA filtration at 22 °C. Animals had nesting and climbing cage topper as the primary environmental enrichment. Animals were inoculated subcutaneously in the right flank with 5 × 10^6 (AMO-1, OPM-2, NCI-H929, and OCI-AML2) or intravenous (IV) with 5 × 10^6 (MV4-11-Red.Fluc). The inoculation volume (0.2 mL) comprised a 50:50 mixture of cells in growth media and Matrigel (BD Biosciences) for subcutaneous injections and 100% phosphate-buffered saline for IV administration. All cell lines used in this publication were authenticated using IDEXX for STR profiling as well as their IMPACT and human IMPACT panels for pathogen screening. Electronic calipers were used to measure the length and width of each tumor 2 to 3 times per week. Tumor volume was estimated by applying the following equation: volume = length × width^2/2. All groups remained blinded during measurements and dosing; only veterinary staff were aware of group identity. When tumors reached approximately 200 mm^3, mice were randomized by match and distributed into treatment and control groups. All xenograft trials were conducted using 5 to 10 mice per group, and all mice were ear tagged and monitored individually throughout the studies. […] Tumor burden in the systemic MV4-11-Red.Fluc experiment was measured using an IVIS® spectrum from PerkinElmer by taking the total photon flux of the entire dorsal side of an individual mouse. […] A background control mouse that was tumor naive but received D-Luciferin was placed in the upper left corner of each image. The total flux from this animal was subtracted from the total flux of each animal present in the image.
For in vivo studies, maximal tumor growth inhibition (TGI) was calculated as the greatest treatment response using the following equation: Maximal TGI = (1 − mean tumor volume of the treated group/mean tumor volume of the vehicle control group) × 100. The tumor growth delay (TGD) percentage was determined as the percentage increase of the median time period for the treatment group to reach an arbitrary tumor volume of 1000 mm^3 relative to the vehicle control group. […] A power analysis was conducted using historical data to determine the number of animals required to yield significance of 0.05 at a 30% difference. […] Data from experiments in vivo were analyzed using the student’s t-test for TGI values and the Mann–Whitney U test for TGD using Excel and GraphPad Prism. Fisher’s exact test was used to probe significance of differences in response frequency.

[1] = 3.13 mg/kg QDx1 IV, Day 28, n=8
[2] = 3.13 mg/kg QDx1 IV, SCID-beige mice, Day 21
[3] = 3.13 mg/kg QDx1 IV, SCID-beige mice, Day 23
[4] = 3.13 mg/kg QDx1 IV, SCID-beige mice, Day 23, mean(T)/mean(C)
[5] = 3.13 mg/kg QDx1 IV, SCID-beige mice, Day 23, median(T)/median(C)

What does the source list for Cc1c(Cl)c2c(Cl)c(C)c1-c1c(-c3ccc(F)cc3)sc3ncnc(c13)O[C@@H](C(=O)O)Cc1cc(ccc1OCc1ccnc(-c3ccc(OC[C@H]4COCCO4)cc3)n1)OC[C@@H](CN1CCN(C)CC1)O2 [Compound A-1747745.0]?
% T/C (mean) tumor volume Day 26 (3.13 mg/kg QDx1 IV, Day 26, mean(T)/mean(C)): 46.99%; % T/C (median) tumor volume Day 26 (3.13 mg/kg QDx1 IV, Day 26, median(T)/median(C)): 47.41%; Xenograft AMO-1 (DSMZ) tumor volume Day 28, Mean [1]: 1102.63 mm³; Xenograft AMO-1 (DSMZ) tumor volume Day 28, Median [1]: 1024.93 mm³; % T/C (mean) tumor volume Day 28 (3.13 mg/kg QDx1 IV, Day 28, mean(T)/mean(C)): 53.81%; % T/C (median) tumor volume Day 28 (3.13 mg/kg QDx1 IV, Day 28, median(T)/median(C)): 53.13%; Xenograft AMO-1 (DSMZ) tumor volume Day 26, individual animals (3.13 mg/kg QDx1 IV, SCID-beige female mice, Day 26): 859 mm³ and 654 mm³ and 702 mm³ and 664 mm³ and 464 mm³ and 884 mm³ and 882 mm³ and 812 mm³; Xenograft AMO-1 (DSMZ) tumor volume Day 28, individual animals (3.13 mg/kg QDx1 IV, SCID-beige female mice, Day 28): 1383 mm³ and 753 mm³ and 968 mm³ and 881 mm³ and 872 mm³ and 1157 mm³ and 1725 mm³ and 1082 mm³; Xenograft AMO-1 (DSMZ) Day 21, Mean [2]: 316.72 mm³; Xenograft AMO-1 (DSMZ) Day 21, Median [2]: 336.29 mm³; Xenograft AMO-1 (DSMZ) (mm³) Day 21, individual animals (3.13 mg/kg QDx1 IV, SCID-beige mice, Day 21, individual tumor volumes): 248 mm³ and 370 mm³ and 418 mm³ and 238 mm³ and 111 mm³ and 349 mm³ and 477 mm³ and 324 mm³; % T/C (mean), Tumor Volume Day 21 (3.13 mg/kg QDx1 IV, SCID-beige mice, Day 21, mean(T)/mean(C)): 49.55%; % T/C (median), Tumor Volume Day 21 (3.13 mg/kg QDx1 IV, SCID-beige mice, Day 21, median(T)/median(C)): 63.86%; Xenograft AMO-1 (DSMZ) Day 23 Mean [3]: 463.98 mm³; Xenograft AMO-1 (DSMZ) Day 23 Median [3]: 467.27 mm³; Xenograft AMO-1 (DSMZ) (mm³) Day 23, individual animals (3.13 mg/kg QDx1 IV, SCID-beige mice, Day 23, individual tumor volumes): 595 mm³ and 419 mm³ and 553 mm³ and 359 mm³ and 205 mm³ and 462 mm³ and 647 mm³ and 473 mm³; % T/C (mean), body weight Day 23 [4]: 104.12%; % T/C (mean), tumor volume Day 23 [4]: 43.45%; % T/C (median), body weight Day 23 [5]: 104.12%; % T/C (median), tumor volume Day 23 [5]: 48.01%; Xenograft AMO-1 (DSMZ) (mm³) Day 30 (individual animals) (3.13 mg/kg QDx1 IV, Day 30, SCID-beige female mice, tumor volume per animal): 1812 mm³ and 984 mm³ and 1324 mm³ and 1150 mm³ and 1149 mm³ and 1537 mm³ and 1916 mm³ and 1649 mm³; Xenograft AMO-1 (DSMZ) (mm³) Day 30 Mean (3.13 mg/kg QDx1 IV, Day 30, group mean): 1440.23 mm³; Xenograft AMO-1 (DSMZ) (mm³) Day 30 Median (3.13 mg/kg QDx1 IV, Day 30, group median): 1430.49 mm³; Xenograft AMO-1 (DSMZ) (mm³) Day 34 (individual animals) (3.13 mg/kg QDx1 IV, Day 34, SCID-beige female mice, tumor volume per animal): 2874 mm³ and 1660 mm³ and 1699 mm³ and 1719 mm³ and 1802 mm³ and 2605 mm³ and 2742 mm³ and 2768 mm³; Xenograft AMO-1 (DSMZ) (mm³) Day 34 Mean (3.13 mg/kg QDx1 IV, Day 34, group mean): 2233.47 mm³; Xenograft AMO-1 (DSMZ) (mm³) Day 34 Median (3.13 mg/kg QDx1 IV, Day 34, group median): 2203.67 mm³; Mortality Observation Day 34 (3.13 mg/kg QDx1 IV, Day 34, per animal): EUTV; Starting Body Wt. (6.25 mg/kg IV QDx1, AMO-1 xenograft, SCID-beige mice, in g (unit assumed)): 21.625; % Mortality (6.25 mg/kg IV QDx1, clinical observation): 100.00%; Anti-tumor Activity vs. AMO-1 (DSMZ), Mean (6.25 mg/kg IV QDx1, day 13): 216.25; Anti-tumor Activity vs. AMO-1 (DSMZ), Median (6.25 mg/kg IV QDx1, day 13): 216.39; Group Mean, Body Weight (6.25 mg/kg IV QDx1, day 14): 21.63 g; Anti-tumor Activity vs. AMO-1 (DSMZ), Mean (6.25 mg/kg IV QDx1, day 16): 172.06; Anti-tumor Activity vs. AMO-1 (DSMZ), Median (6.25 mg/kg IV QDx1, day 16): 173.79; Anti-tumor Activity vs. AMO-1 (DSMZ), Mean (6.25 mg/kg IV QDx1, day 19): 133.62; Anti-tumor Activity vs. AMO-1 (DSMZ), Median (6.25 mg/kg IV QDx1, day 19): 134.81; Anti-tumor Activity vs. AMO-1 (DSMZ), Mean (6.25 mg/kg IV QDx1, day 21): 175.92; Anti-tumor Activity vs. AMO-1 (DSMZ), Median (6.25 mg/kg IV QDx1, day 21): 202.13; Anti-tumor Activity vs. AMO-1 (DSMZ), Mean (6.25 mg/kg IV QDx1, day 23): 218.85
